Laboratory results as given in patent US10363251B2, “(+)-morphinans as antagonists of toll-like receptor 9 and therapeutic uses thereof” (Mallinckrodt LLC, priority 2009, dated 2019).

Tests used:
[1] = biological target: T1, TLR9 (Homo sapiens, UniProt Q9NR96); experiment: TLR9 antagonist screening, NF-κB-inducible SEAP reporter in HEK293 cells; type: cell-based; conditions: 10 μM; stimulated with CpG ODN 2006 at 100 ng/ml
T1 construct: expressed in transfected cells; host or cells: HEK293
T1 sequence (Q9NR96 26-1032): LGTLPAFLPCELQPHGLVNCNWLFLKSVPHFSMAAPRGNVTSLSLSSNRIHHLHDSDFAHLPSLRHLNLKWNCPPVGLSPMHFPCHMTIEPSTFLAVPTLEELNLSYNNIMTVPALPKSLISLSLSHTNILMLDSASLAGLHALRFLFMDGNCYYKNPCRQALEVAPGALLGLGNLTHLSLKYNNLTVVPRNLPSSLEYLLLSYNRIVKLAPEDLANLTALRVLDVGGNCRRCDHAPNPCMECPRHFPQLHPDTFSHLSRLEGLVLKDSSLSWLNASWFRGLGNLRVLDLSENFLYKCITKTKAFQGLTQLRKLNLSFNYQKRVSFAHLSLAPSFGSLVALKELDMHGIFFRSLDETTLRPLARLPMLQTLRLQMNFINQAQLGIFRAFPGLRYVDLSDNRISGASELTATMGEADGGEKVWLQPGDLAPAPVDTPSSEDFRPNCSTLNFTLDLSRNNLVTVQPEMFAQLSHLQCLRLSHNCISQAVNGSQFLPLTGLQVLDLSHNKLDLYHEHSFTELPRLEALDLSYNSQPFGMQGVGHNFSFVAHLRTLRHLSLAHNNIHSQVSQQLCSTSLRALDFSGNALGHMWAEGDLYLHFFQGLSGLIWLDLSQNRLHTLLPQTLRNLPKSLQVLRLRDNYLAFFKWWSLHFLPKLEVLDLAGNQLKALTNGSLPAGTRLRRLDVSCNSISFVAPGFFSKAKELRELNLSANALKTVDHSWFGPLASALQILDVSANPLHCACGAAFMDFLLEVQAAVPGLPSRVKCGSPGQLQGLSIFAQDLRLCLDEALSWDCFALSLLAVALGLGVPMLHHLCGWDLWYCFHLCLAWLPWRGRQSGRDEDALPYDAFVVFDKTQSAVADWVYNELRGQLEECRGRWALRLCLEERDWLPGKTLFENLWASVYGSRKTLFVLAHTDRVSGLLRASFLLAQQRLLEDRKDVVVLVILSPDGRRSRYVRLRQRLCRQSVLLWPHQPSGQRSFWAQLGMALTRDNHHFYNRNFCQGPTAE
Protocol: (§1) Stimulation of TLRs 2, 3, 4, 5, 7, 8, and 9 was determined by assessing activation of the transcription factor NF-κB in HEK293 cells that were engineered to express the corresponding receptors. Assessment of TLR stimulation was based on the use of an NF-κB-inducible secreted alkaline phosphatase (SEAP) reporter system in which the SEAP reporter was under the control of a promoter inducible by NF-κB. Thus, the degree of activation of TLRs can be indirectly quantified spectrophotometrically by measuring the amount of the SEAP reporter that is produced.
(§2) The appropriate TLR-expressing cells were plated in Growth Medium in a 96-well plate (25,000-50,000 cells/well). The cells were stimulated with the appropriate positive control ligand or no ligand was added (negative control). The positive control ligands were: HKLM was used to stimulate TLR2; poly(I:C) was used to stimulate TLR3; LPS was used to stimulate TLR4; Flagellin was used to stimulate TLR5; CL097 was used to stimulate TLR7; CL075 was used to stimulate TLR8; CpG oligodeoxynucleotide (ODN) 2006 was used to stimulate TLR9. To test whether (+)-morphinans could block that activation of the TLR, the cells were pretreated with an antagonist for 30 minutes prior to addition of the positive control ligand. For this, 20 μL of the stock test compound solution (100 μM in H2O) was added to give a total volume of 200 μL. […] After a 16-20 hr incubation period at 37° C. in a CO2 incubator, 20 μL of the cell culture supernatant was added to 180 μL of QUANTI-Blue™ Media (InvivoGen, San Diego, Calif.), and the resulting solutions were incubated at 37° C. for an additional 1-3 hours according to the manufacturer's instructions. The OD's of the samples were then read at 650 nm on a Beckman Coulter AD 340C Absorbance Detector.

[2] = biological target: T2, TLR2 (Homo sapiens, UniProt O60603); experiment: TLR2 antagonist screening, NF-κB-inducible SEAP reporter in HEK293 cells; type: cell-based; conditions: 10 μM; stimulated with HKLM at 10^8 cell/ml
T2 construct: expressed in transfected cells; host or cells: HEK293
Protocol: as §1, §2

[3] = biological target: T3, TLR5 (Homo sapiens, UniProt O60602); experiment: TLR5 antagonist screening, NF-κB-inducible SEAP reporter in HEK293 cells; type: cell-based; conditions: 10 μM; stimulated with Flagellin at 100 ng/ml
T3 construct: expressed in transfected cells; host or cells: HEK293
Protocol: as §1, §2

[4] = biological target: T4, TLR3 (Homo sapiens, UniProt O15455); experiment: TLR3 antagonist screening, NF-κB-inducible SEAP reporter in HEK293 cells; type: cell-based; conditions: 10 μM; stimulated with poly(I:C) at 1 μg/ml
T4 construct: expressed in transfected cells; host or cells: HEK293
Protocol: as §1, §2

[5] = biological target: T5, TLR4 (Homo sapiens, UniProt O00206); experiment: TLR4 antagonist screening, NF-κB-inducible SEAP reporter in HEK293 cells; type: cell-based; conditions: 10 μM; stimulated with LPS at 100 ng/ml
T5 construct: expressed in transfected cells; host or cells: HEK293
Protocol: as §1, §2

[6] = biological target: T1, TLR9; experiment: TLR9 screening of (+)-morphinan library, SEAP reporter in HEK293 cells expressing TLR9; type: cell-based; conditions: activator ODN2006; for OD 650 nm (mean ± sd): control (no activator) 0.14, activator 1.42 OD
Procedure, shortened: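 HEK293 cells expressing TLR9 with an NF-κB-inducible SEAP reporter were preincubated with compound at 10 μM and 100 nM for 30 min at 37 °C, then stimulated with ODN2006. SEAP was read as OD 650 nm after 16-20 h, in triplicate.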

[7] = Dissolution of compound in dosing vehicle (EAE study); type: physicochemical; conditions: 20 mg/kg in sterile dd H2O; delivered as a suspension
Description: It is not known whether the suspension dissolved adequately in the body to provide sufficient plasma concentration for efficacy.

[8] = tested on: Experimental Autoimmune Encephalomyelitis (EAE); conditions: bid for 20 days; Cmpd II-98 5 mg/kg sc, others 20 mg/kg sc, Prednisolone 4.5 mg/kg ip; vs vehicle control

T4 sequence (O15455 24-904, species assumed): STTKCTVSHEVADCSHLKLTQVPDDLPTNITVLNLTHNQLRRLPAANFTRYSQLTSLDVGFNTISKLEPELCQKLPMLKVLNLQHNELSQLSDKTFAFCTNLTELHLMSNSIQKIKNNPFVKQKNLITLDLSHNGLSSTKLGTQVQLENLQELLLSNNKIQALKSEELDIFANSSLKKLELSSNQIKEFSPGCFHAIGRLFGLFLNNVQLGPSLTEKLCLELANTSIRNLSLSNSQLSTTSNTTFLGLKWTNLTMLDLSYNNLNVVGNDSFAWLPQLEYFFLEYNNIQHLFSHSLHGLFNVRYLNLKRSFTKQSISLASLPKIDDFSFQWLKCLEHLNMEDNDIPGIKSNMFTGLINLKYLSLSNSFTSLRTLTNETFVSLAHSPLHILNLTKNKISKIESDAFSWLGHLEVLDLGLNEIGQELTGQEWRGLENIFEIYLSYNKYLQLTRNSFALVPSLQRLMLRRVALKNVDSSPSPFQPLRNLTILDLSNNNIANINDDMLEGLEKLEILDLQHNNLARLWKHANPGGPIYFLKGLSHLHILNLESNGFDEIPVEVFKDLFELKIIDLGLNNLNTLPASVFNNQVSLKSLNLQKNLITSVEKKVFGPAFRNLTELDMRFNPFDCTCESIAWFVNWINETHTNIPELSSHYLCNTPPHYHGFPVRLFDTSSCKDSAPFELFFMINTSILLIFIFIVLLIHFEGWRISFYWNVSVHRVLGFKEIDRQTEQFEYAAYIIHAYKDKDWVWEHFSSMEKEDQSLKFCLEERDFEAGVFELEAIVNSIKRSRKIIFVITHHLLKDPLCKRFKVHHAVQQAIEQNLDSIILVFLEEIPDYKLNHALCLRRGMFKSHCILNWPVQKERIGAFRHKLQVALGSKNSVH
T3 sequence (O60602 21-858, species assumed): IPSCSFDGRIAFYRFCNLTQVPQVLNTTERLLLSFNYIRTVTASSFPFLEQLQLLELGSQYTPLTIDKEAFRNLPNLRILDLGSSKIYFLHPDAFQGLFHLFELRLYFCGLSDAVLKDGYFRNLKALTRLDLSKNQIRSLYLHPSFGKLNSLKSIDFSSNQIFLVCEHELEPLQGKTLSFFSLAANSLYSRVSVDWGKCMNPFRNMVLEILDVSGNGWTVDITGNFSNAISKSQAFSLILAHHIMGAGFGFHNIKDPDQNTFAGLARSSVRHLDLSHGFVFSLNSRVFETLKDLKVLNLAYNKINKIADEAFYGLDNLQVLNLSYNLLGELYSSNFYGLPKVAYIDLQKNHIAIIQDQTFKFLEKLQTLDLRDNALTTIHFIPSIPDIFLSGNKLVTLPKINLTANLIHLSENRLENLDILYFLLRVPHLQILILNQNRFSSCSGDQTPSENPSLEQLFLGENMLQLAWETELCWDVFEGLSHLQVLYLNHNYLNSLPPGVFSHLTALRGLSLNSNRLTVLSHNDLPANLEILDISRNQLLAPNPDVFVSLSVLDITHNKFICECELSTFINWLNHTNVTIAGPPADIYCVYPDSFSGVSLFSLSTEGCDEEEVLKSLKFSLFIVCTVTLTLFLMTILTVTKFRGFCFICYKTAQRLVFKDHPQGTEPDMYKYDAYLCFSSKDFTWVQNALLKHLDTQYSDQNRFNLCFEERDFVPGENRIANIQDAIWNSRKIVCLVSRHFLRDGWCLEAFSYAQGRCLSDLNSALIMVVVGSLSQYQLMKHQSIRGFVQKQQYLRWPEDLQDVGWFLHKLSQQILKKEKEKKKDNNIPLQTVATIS
T2 sequence (O60603 21-784, species assumed): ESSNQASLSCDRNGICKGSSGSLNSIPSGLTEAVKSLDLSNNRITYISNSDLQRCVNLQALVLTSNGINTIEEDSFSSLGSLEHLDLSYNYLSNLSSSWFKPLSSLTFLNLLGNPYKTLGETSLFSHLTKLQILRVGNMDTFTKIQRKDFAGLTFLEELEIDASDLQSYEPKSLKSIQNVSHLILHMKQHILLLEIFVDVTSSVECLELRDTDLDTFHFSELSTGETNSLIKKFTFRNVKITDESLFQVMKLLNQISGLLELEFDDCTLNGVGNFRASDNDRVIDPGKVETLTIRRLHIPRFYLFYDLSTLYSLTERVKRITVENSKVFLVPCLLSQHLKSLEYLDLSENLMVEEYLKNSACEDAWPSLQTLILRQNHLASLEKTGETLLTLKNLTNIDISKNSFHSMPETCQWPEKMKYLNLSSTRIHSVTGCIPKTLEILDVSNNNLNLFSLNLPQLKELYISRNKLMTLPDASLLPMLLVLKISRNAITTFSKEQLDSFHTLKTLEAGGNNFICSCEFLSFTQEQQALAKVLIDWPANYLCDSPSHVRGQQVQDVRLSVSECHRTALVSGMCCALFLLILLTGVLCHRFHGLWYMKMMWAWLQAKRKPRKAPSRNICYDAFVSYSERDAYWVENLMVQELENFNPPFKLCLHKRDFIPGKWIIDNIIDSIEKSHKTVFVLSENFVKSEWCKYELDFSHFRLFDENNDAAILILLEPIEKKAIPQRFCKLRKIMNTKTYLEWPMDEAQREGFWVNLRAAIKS
T5 sequence (O00206 24-839, species assumed): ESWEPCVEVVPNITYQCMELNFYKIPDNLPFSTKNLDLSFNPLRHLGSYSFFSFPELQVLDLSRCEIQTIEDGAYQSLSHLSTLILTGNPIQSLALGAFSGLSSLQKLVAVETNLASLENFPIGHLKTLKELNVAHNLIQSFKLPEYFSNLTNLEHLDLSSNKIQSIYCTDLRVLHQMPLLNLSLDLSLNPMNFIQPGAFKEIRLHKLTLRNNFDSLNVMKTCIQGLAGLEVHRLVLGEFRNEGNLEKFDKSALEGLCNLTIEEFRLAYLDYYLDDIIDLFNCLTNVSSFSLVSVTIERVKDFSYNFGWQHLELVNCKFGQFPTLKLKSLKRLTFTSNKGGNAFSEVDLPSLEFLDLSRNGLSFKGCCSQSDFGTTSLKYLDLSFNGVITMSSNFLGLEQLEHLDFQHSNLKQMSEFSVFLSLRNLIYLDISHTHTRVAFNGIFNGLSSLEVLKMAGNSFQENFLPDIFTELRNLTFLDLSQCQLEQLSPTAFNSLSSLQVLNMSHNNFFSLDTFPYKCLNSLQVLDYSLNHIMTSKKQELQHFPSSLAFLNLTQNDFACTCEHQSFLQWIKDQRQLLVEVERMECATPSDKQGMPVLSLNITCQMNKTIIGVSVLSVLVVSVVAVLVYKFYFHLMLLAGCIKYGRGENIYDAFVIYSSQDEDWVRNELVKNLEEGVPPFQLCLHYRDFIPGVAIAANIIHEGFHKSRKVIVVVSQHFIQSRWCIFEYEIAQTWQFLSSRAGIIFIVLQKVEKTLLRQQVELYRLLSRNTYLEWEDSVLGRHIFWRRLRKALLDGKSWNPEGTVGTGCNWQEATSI
T5 sequence (Q9Y6Y9 17-160 partner limits assumed, species assumed): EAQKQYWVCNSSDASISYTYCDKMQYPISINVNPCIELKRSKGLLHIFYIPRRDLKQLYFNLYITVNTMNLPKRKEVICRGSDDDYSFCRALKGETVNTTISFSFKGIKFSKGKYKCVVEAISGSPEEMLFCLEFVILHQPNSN

Row | Compound | Average % Inhibition at TLR9 [1] [%] | Average % Inhibition at TLR2 [2] [%] | Average % Inhibition at TLR5 [3] [%] | Average % Inhibition at TLR3 [4] [%] | Average % Inhibition at TLR4 [5] [%] | OD 650 nm (mean ± sd) ([6]; 100 nM) [OD] | OD 650 nm (mean ± sd) ([6]; 10 μM) [OD] | inhibition at 0.1 µM ([6]; HEK293, read-out: % Inhibition (mean), 100 nM) [%] | inhibition at 10 µM ([6]; HEK293, read-out: % Inhibition (mean), 10 μM) [%] | Dissolution in dosing vehicle [7] | EAE clinical scores [8]
1 | O=C1CC[C@]2(O)[C@@H]3Cc4ccc(O)c5c4[C@]2(CCN3CC2CC2)[C@@H]1O5 [(+)-Naltrexone, (+)-naltrexone] | 51 | 21 | 22 | 22 | 24 | – | – | – | – | – | –
2 | COC1=CC=C2[C@@H]3Cc4ccc(OC)c5c4[C@]2(CCN3)[C@@H]1O5 [II-38] | – | – | – | – | – | 0.86 ± 0.01 | 0.12 ± 0.01 | 40 | 92 | did not dissolve into a solution | did not improve EAE
